Entries after “also recorded” stand apart in the source; their conditions may differ.
How the values were obtained:
[1] = test system: L929 cells; assay: Proliferation of fibroblasts stimulated with bFGF (Brd-U uptake); assay type: cell-based, mouse; conditions: Compound (I) 0.3 to 10 μM, KN-93 1 to 30 μM; FIG. 3
Procedure: Effects of Compound (I) and KN-93 on the proliferation of fibroblasts when the fibroblasts were stimulated with basic fibroblast growth factor (bFGF) were evaluated.
L929 cells (mouse fibroblast cell line) were cultured in MEM-Earl medium (E-MEM: GIBCO, Inc.) containing 10% fetal bovine serum and subjected to the experiment. The cells were suspended in a serum-free E-MEM and disseminated in 96-well plate in a ratio of 2×10^4 cells/well and incubated for 72 hours. An E-MEM medium containing the test substance was added and incubated for 1 hour, and an E-MEM medium containing recombinant human FGF basic (bFGF) as a stimulant was added and incubated for 20 hours. 5-Bromo2′-deoxyuridine (Brd-U) solution was added to each well and incubated at 37° C. for further four hours. The cells were fixed and uptake of Brd-U was detected by Cell proliferation ELISA system (Amersham) and absorbance at 450 nm was measured with a microplate reader. This value of absorbance was used as an index of cell proliferation.

[2] = test system: EL-4 cells; assay: IL-2 production when T-lymphocytes were stimulated with PMA and A23187; assay type: cell-based, mouse; conditions: Compound (I) 1 to 30 μM, KN-93 1 to 10 μM; 20 hours; FIG. 1
Procedure: Effects of Compound (I) and KN-93 on IL-2 production when T-lymphocytes were stimulated with Phorbol 12-myristate 13-acetate (PMA) and Calcium Ionophore A23187 were evaluated.
EL-4 cells (mouse T-lymphocyte cell line) were cultured in Dulbecco's Modified Eagle Medium (DMEM: GIBCO, Inc.) containing 10% fetal bovine serum and subjected to the experiment. The cells were disseminated in 96-well plate in a ratio of 5×10^4 cells/well and a DMEM medium containing the test substance and a DMEM medium containing PMA and A23187 as a stimulant were added and incubated for 20 hours. The concentration was adjusted so that the final concentrations of the test substances and stimulants were 1 to 30 μM for Compound (I), 1 to 10 μM for KN-93, 25 ng/ml for PMA and 250 ng/ml for A23187. The plate was centrifuged after incubation and the supernatant was collected with micropipette. The concentration of IL-2 in the supernatant was quantified by Enzyme-linked Immunosorbent Assay (ELISA) method. The quantitative method was carried out in accordance with the instructions attached to the kit (MOUSE IL-2 Immunoassay, R & D Systems).

[3] = test system: SW982 cells; assay: Proliferation of human synovial cells (Alamar Blue); assay type: cell-based; conditions: Compound (I) 1 to 30 μM, KN-93 1 to 30 μM; FIG. 4
Procedure: Effects of Compound (I) and KN-93 on the proliferation of SW982 cells (human synovial cell line) were evaluated.
SW982 cells (human synovial cell line; obtained from ATCC) was cultured in a FCS (product of SIGMA, Inc.) containing DMEM medium (product of GIBCO, Inc.) and subjected to the experiment. SW982 was disseminated in 96-well flat bottom plate in the absence of serum in a ratio of 4×10^4 cells/well. Compounds were added at the same time of the dissemination of the cells and incubated at 200 μl cells/well. 20 μl of Alamar Blue® was added to each well (BIOSOURCE, Inc.) after 18 hours and incubated for further six hours and the absorbance of each well was measured with a microplate reader. The absorbance was measured at two wavelengths of 570 nm and 600 nm.

[4] = test system: human CaMKII γ; assay: Examination of CaMKII inhibitory activity (2); assay type: biochemical
Procedure: Test substances were dissolved in DMSO and diluted to various concentrations with a buffer solution (50 mM Tris-HCl: pH 7.5, 10 mM MgCl2, 1 mM Dithiothreitol (DTT)) (all of them are available from Nacalai Tesque, Inc.) for CaMKII reaction. CaMKIIα (final concentration 0.75 μg/ml) (Santa Cruz, Inc.) derived from rat was mixed with Autocamtide-2® (40 μM) (CALBIOCHEM Company) dissolved in CaMKII reaction buffer solution in the presence of the test substance and with CaMKII activation buffer solution (1 mMCaCl2, 1 μM calmodulin) (Nacalai Tesque, Inc.) and the reaction was started by further adding ATP (50 μM) (Nacalai Tesque, Inc.). The reaction was performed at 30° C. for five minutes and then SDS-PAGE sample buffer solution was added and the reaction was terminated by boiling for five minutes. Proteins in the reaction mixture were separated by 15% SDS-PAGE and blotted onto a PVDF membrane. Phosphorus taken in by Autocamtide-2 was reacted with an anti-phosphorylated serine/threonine antibody (Santa Cruz, Inc.) and quantified by ECL system (Amersham, Inc.) and NIH Image (downloadable from http://rsb.info.nih.gov/nih-image/).
CaMKII γ gene was prepared by PCR method using two kinds of primers (5′-TC GGATCCAGCATGGCCACCACCGCCACCTG-3′ [SEQ ID NO 4] and 5′-TA GAATTCACACTGCAGCGGTGCGGCAGG [SEQ ID NO 5]) synthesized based on the sequence of GenBank Accession No. L07044 and cDNA derived from cultured cells (JurketT cells) prepared by a conventional method as a template. The CaMKII γ gene was excised by BamHI and EcoRI and introduced into the MCS of pFastBacl transfer vector. Expression virus was prepared and amplified based on this vector. The details followed the manual of Bac-to-Bac baculovirus expression system (Invitrogen, Inc.). Expressed CaMKII γ was purified in accordance with the method described in literature (Biochemical & Biophysical Research Communications, 173(2): 578-84, 1990). That is, expression cells were pulverized by supersonic wave and preparation was performed by affinity refinement with calmodulin sepharose (Amasham Biosciences, Inc.) from cell soluble fraction obtained by centrifugal operation via ammonium sulfate fraction of final concentration of 60%. Confirmation of expression was performed by Western blotting method using anti-CaMKII γ specific antibody, sc1541 (Santa Cruz, Inc.).
CaMKII γ inhibitory activity of test substances were measured in the same conditions as in Example 1 except human CaMKII γ prepared by the above procedure was used in place of CaMKII α derived from rat.

| SMILES | proliferation of fibroblasts [1] | production of IL-2 [2] | proliferation of SW982 cells [3] | concentration with an effect of inhibiting the activity of CaMKII [4] [µM] | Inhibition rate (%) ([4]; Concentration 1 μm) | Inhibition rate (%) ([4]; Concentration 10 μm) | Inhibition rate (%) ([4]; Concentration 30 μm) |
| --- | --- | --- | --- | --- | --- | --- | --- |
| COc1ccc(S(=O)(=O)N(CCO)c2ccccc2CN(C)C/C=C/c2ccc(Cl)cc2)cc1 [KN-93, N-(2-[N-[4-chlorocinnamyl]-N-methylaminomethyl]phenyl)-N-(2-hydroxyethyl)-4-methoxybenzenesulfonamide, reference compound] | dose-dependently suppressed the proliferation of fibroblasts | suppressed production of IL-2 dose-dependently | dose-dependently suppressed the proliferation of human synovial cells; also recorded: almost completely suppressed | ≥ 1 | 27 | 101 | 107 |
| C[C@@H](c1ccc(-c2ccccc2)c(F)c1)c1cc(/N=C(/N)N2CCOCC2)on1 [Compound (I), 3-[(1S)-1-(2-fluorobiphenyl-4-yl)ethyl]-5-{[amino(morpholin-4-yl)methylene]amino}isoxazole] | dose-dependently suppressed the proliferation of fibroblasts | suppressed production of IL-2 dose-dependently | dose-dependently suppressed the proliferation of human synovial cells; also recorded: almost completely suppressed | ≥ 10 | 7 | 33 | 57 |
